The nature of data set [1]: Cytotoxicity assay (MTT) against MRC-5 cells. The data set is classed as cell-based. To be noted: human, MRC-5 cells (normal embryonic lung cell line), read-out: Cytotoxic activity (IC50). How it is done: MRC-5 cells were grown in DMEM supplemented with 100 U/mL penicillin–streptomycin and 10% FBS. Briefly, the cells suspended in the corresponding culture medium were inoculated in 96-well microtiter plates (Corning Inc., NY, USA) at 10,000–20,000 cells per well and then incubated at 37 °C under a humidified atmosphere with 5% CO2 for 24 h. An equal volume of additional medium containing serial dilutions of test compounds, positive control (doxorubicin), or negative control (DMSO) was added to the desired final concentrations. Microtiter plates were further incubated for 48 h. The cell viability in each well was determined by staining with the MTT assay reagent (Molecular Probes, Cat. no. M6494).[75]–[77] MTT solution ([…]) was added to all wells of the assay, and the plates were incubated for 2–4 h. Subsequently, DMSO was added to dissolve the resulting formazan by sonication. The plates were read on a microplate reader (Molecular Devices, USA) using a test wavelength of 550 nm and a reference wavelength of 650 nm. The IC50 value was determined as the concentration of compound that inhibited the cell growth by 50%.

The test system of data set [2] is H2O2-induced SH-SY5Y cells. In words: Cell viability in H2O2-induced SH-SY5Y cells (MTT assay). In kind it is cell-based, human. The following applies: 5 μM pretreatment 3 h, then 400 μM H2O2 24 h; for protective effect on cell viability: vs nonpretreated group. How it is done:
Cell viability was evaluated using the MTT assay. […] Cells were pretreated for 3 h with aminochalcones or resveratrol at various concentrations ranging from 0 to 100 μM before being incubated with 400 μM H2O2 (Sigma-Aldrich, Cat. no. 31642) for 24 h. Cells treated only with culture media, DMEM with 10% FBS, were used as the control. Each well received 5 mg/mL of MTT solution at the end of the incubation time, and the samples were then incubated at 37 °C in the dark for 2–4 h. Following the removal of the solution, 0.04 N HCl in isopropyl alcohol was added to dissolve the formazan crystals. A microplate reader programed to read at 570 nm was used to detect the MTT formazan product. The absorbance of formazan is directly proportional to the number of viable cells. The viability of the cells was expressed in percentages compared with the viability of the control group.[23]

Data set [3] concerns H2O2-induced SH-SY5Y cells. In words: Cell morphology observation in H2O2-induced SH-SY5Y cells. In kind it is cell-based, human. To be noted: 5 μM pretreatment 3 h, then 400 μM H2O2 24 h. How it is done: After adhering, the cells were treated with aminochalcones for 3 h. The culture media was refreshed, followed by an additional 24 h of exposure to 400 μM H2O2.
For data set [4], the system named is H2O2-induced SH-SY5Y cells. In words: Intracellular ROS production (DCFDA) in H2O2-induced SH-SY5Y cells. The data set is classed as cell-based, human. The following applies: for effect on intracellular ROS production: 5 μM pretreatment, vs H2O2 alone. How it is done: Green fluorescent DCF was generated by the oxidation of nonfluorescent carboxy-DCFDA, which is caused by intracellular ROS. SH-SY5Y cells (200 μL) at 1.0 × 10^5 cells/mL were seeded and incubated overnight in 96-well plates at 37 °C. Then, each well was pretreated for 3 h with 5 μM aminochalcones or resveratrol before exposure to 400 μM H2O2 for an additional 24 h. Subsequently, carboxy-H2DCFDA was introduced to the to a final concentration of 10 μM in the culture media and incubated at 37 °C for 30 min under dark conditions. Intracellular ROS production was instantly evaluated using a microplate reader at an emission wavelength of 528 nm and an excitation wavelength of 485 nm. The intracellular ROS production of the cells was expressed as percentages compared with the control group.[79]

Data set [5] relates to H2O2-induced SH-SY5Y cells. Put plainly: Mitochondrial membrane potential (Rhodamine-123) in H2O2-induced SH-SY5Y cells. The data set is classed as cell-based, human. The following applies: 5 μM pretreatment, vs H2O2 alone. How it is done: Mitochondrial-specific fluorescent dye, Rhodamine-123 (Sigma-Aldrich, Cat. no. R8004), was used to determine the MMP. The reduction in the fluorescence signal correlated with the decrease in MMP, which referred to a decrease in the mitochondrial function. SH-SY5Y cells (200 μL) at 1.0 × 10^5 cells/mL were plated onto the 96-well plate and incubated overnight at 37 °C. Then, each well was pretreated for 3 h with 5 μM aminochalcones or resveratrol before being challenged with 400 μM H2O2 for further 24 h. Cells were then exposed to Rhodamine-123 at a final concentration of 10 μM in the culture media and incubated at 37 °C for 30 min under dark conditions. At the end of incubation, cells were washed twice with PBS to remove the excess dye. MMP levels were then measured with a microplate reader at excitation and emission wavelengths of 488 and 525 nm, respectively. The MMP of the cells was expressed as percentages compared with the control group.[80]

In data set [6] the test system is H2O2-induced SH-SY5Y cells. In words: LDH assay of cell membrane damage in H2O2-induced SH-SY5Y cells. The data set is classed as cell-based, human. To be noted: 5 μM pretreatment, vs H2O2 alone. How it is done:
LDH leakage into the culture medium of aminochalcones with or without H2O2-treated cells was assessed by using an LDH assay kit to determine the neuroprotective effect of aminochalcones against H2O2-induced cell damage. To prepare samples for the LDH test, 2 mL of SH-SY5Y cells at 1.0 × 10^5 cells/mL concentration was added and incubated overnight in 6-well plates at 37 °C. Then, each well was pretreated for 3 h with 5 μM aminochalcones or resveratrol before exposure to 400 μM H2O2 for another 24 h. Subsequently, the LDH assay kit (Cat. no. MAK066) from Sigma-Aldrich (St. Louis, MO, USA) was used to measure the LDH activity, following the manufacturer’s instructions. The assay relies on the conversion of lactate to pyruvate by the enzyme lactate dehydrogenase and further produces NADH as a product, giving rise to an increase in absorbance at 450 nm.

Another data set concerns SH-SY5Y cells. In words: SH-SY5Y cell viability, compounds alone (MTT assay). In kind it is cell-based, human. The following applies: compounds alone at 10 μM, no H2O2. How it is done: Cell viability was evaluated using the MTT assay. Briefly, 96-well plates were seeded with SH-SY5Y cells at a density of 1 × 10^5 cells/mL and allowed to attach. Cells were pretreated for 3 h with aminochalcones or resveratrol at various concentrations ranging from 0 to 100 μM before being incubated with 400 μM H2O2 (Sigma-Aldrich, Cat. no. 31642) for 24 h. Cells treated only with culture media, DMEM with 10% FBS, were used as the control. Each well received 5 mg/mL of MTT solution at the end of the incubation time, and the samples were then incubated at 37 °C in the dark for 2–4 h. Following the removal of the solution, 0.04 N HCl in isopropyl alcohol was added to dissolve the formazan crystals. A microplate reader programed to read at 570 nm was used to detect the MTT formazan product. The absorbance of formazan is directly proportional to the number of viable cells. The viability of the cells was expressed in percentages compared with the viability of the control group.[23]

SMILES strings stand for the structures.

In the case of `COc1cccc(/C=C/C(=O)c2ccc(N)cc2)c1` [Compound 5, (E)-1-(4-Aminophenyl)-3-(3-methoxyphenyl)prop-2-en-1-one], in data set [1], the IC50 at 48 h turned out to be 116 ± 8.08 µM. In addition, the “protective effect on cell viability” value in data set [2] is reported as “significantly improved the cell viability”. For the same compound, in data set [3], the “effect on cell morphology” value is recorded as “prevented morphological aberration”. In addition, the “effect on intracellular ROS production” value in data set [4] is reported as “reduced intracellular ROS production”. Further, the “effect on mitochondrial function” value in data set [5] is listed as “prevented mitochondrial dysfunction”. Besides, the “effect on cell membrane damage” value in data set [6] is reported as “reduced cell membrane damage”.

As to `COc1ccc(/C=C/C(=O)c2ccc(N)cc2)cc1O` [Compound 4, (E)-1-(4-Aminophenyl)-3-(3-hydroxy-4-methoxyphenyl)prop-2-en-1-one], the melting point was 187 to 189 °C. In data set [1], the IC50 at 48 h was determined as 115.3 ± 1.05 µM. Further, in the data set with SH-SY5Y cells, the “effect on cell viability, compounds alone” value is on record as “hazardous to the treated cells”. The “protective effect on cell viability” value in data set [2] is reported as “low protective potential”.

As for `COc1ccc(/C=C/C(=O)c2ccc(N)cc2)c(OC)c1OC` [Compound 2, (E)-1-(4-Aminophenyl)-3-(2,3,4-trimethoxyphenyl)prop-2-en-1-one], the IC50 at 48 h in data set [1] turned out to be 99.3 ± 4.15 µM. Moreover, the “protective effect on cell viability” value in data set [2] is given as “significantly improved the cell viability”. Further, in data set [3], the “effect on cell morphology” value is listed as “prevented morphological aberration”. Besides, the “effect on intracellular ROS production” value in data set [4] is on record as “reduced intracellular ROS production”. In addition, the “effect on mitochondrial function” value in data set [5] was “prevented mitochondrial dysfunction”. Moreover, the “effect on cell membrane damage” value in data set [6] was “reduced cell membrane damage”.

For the compound `Oc1ccc(/C=C/c2cc(O)cc(O)c2)cc1` [resveratrol, reference compound], in data set [2] (Homo sapiens, SH-SY5Y, read-out: cell viability (percentage relative to control)), the viability at 5 µM is 85%. In addition, in data set [3], the “effect on cell morphology” value is recorded as “morphological alterations were reduced”. In addition, the activity at 5 µM in data set [4] (Homo sapiens, SH-SY5Y, 5 μM pretreatment 3 h, then 400 μM H2O2 24 h, H2O2 alone 135.54%, read-out: intracellular ROS production (fluorescence intensity, % of control)) was 123 ± 2%.

Consider `COc1cc(/C=C/C(=O)c2ccc(N)cc2)cc(OC)c1OC` [Compound 3, (E)-1-(4-Aminophenyl)-3-(3,4,5-trimethoxyphenyl)prop-2-en-1-one], for which the IC50 at 48 h in data set [1] came to 70.3 ± 3.78 µM. In addition, the “effect on cell viability, compounds alone” value with SH-SY5Y cells was “hazardous to the treated cells”. For the same compound, the “protective effect on cell viability” value in data set [2] is “significantly improved the cell viability”. The “effect on cell morphology” value in data set [3] was “prevented morphological aberration”. Further, in data set [4], the “effect on intracellular ROS production” value is “reduced intracellular ROS production”. Moreover, in data set [5], the “effect on mitochondrial function” value is reported as “prevented mitochondrial dysfunction”. For the same compound, the “effect on cell membrane damage” value in data set [6] is reported as “reduced cell membrane damage”.

Turning to `COc1cccc2c1C(=O)c1c(O)c3c(c(O)c1C2=O)C[C@@](O)(C(=O)CO)C[C@@H]3O[C@H]1C[C@H](N)[C@H](O)[C@H](C)O1` [doxorubicin, reference compound], the IC50 at 48 h in data set [1] was determined as 3.03 ± 0.09 µM.

For the origin of these results see publication PMC10515382, “Aminochalcones Attenuate Neuronal Cell Death under Oxidative Damage via Sirtuin 1 Activity” (ACS Omega, 2023).
